Here are results for one compound from paper PMC10224004, “Modulation of Distribution and Diffusion through the Lipophilic Membrane with Cyclodextrins Exemplified by a Model Pyridinecarboxamide Derivative” (Pharmaceutics, 2023).

Series [1] can be described thus: Shake-flask solubility in n-hexane and dissolution thermodynamics. It counts as physicochemical. The note with it: for Molar solubility S2 × 10^3 in n-Hexane: value = S2 × 10^3. On the procedure: The solubility of the investigated drugs in 1-octanol and n-hexane was determined by the shake-flask technique. To this end, the glass vials containing the solutions with the excess amount of the compound were placed in an air thermostat and stirred at a predetermined temperature for no less than 24 h (equilibrium state). After this, the suspensions were left for 5 h or more to precipitate the undissolved drug and centrifuged (Biofuge pico, Thermo Electron LED GmbH, Langenselbold, Germany) at a predetermined temperature during 20 min (10,000 rpm). The aliquots of the clear solutions were taken and examined via a spectrophotometer (Cary-50 Varian, Palo Alto, CA, USA, Software Version 3.00 (339)). The molar concentrations of the compounds in the solvents were calculated using calibration curves at the appropriate wavelength characteristic for each substance. The experimental results were reported as an average of at least three replicated experiments with an accuracy of 2–4%. In order to evaluate the thermodynamic parameters of the IPN dissolution in 1-octanol and n-hexane, the molar solubility ( S2 ) was recalculated to the mole fraction ( X2 ) by the equation:(1) X2=M2S2/S2(M1−M2)+1000ρ, where M1 and M2 are the molar masses of IPN and organic solvent, respectively, and ρ (g∙cm^−3) is the density of the pure solvents. The linear functions describing the temperature dependences of the solubility within the temperature interval from 293.2 ± 0.5 K to 313.2 ± 0.5 K for both organic solvents were derived:(2) lnX2=A+B/T
The apparent solution enthalpies ΔHsol0 were determined by the van’t Hoff equation:(3) ∂(lnX2)/∂T=ΔHsol0/RT^2
The apparent dissolution Gibbs energies ( ΔGsol ) and entropies ( ΔSsol ) were calculated at a standard temperature of 298.2 K and 310.2 K:(4) ΔGsol298.2/310.2=−RT(lnX2298.2/310.2) (5) ΔGsol298.2/310.2=ΔHsol0−TΔSsol298.2/310.2 where R is the universal gas constant.

Series [2] can be described thus: ΔlogD parameter (logDapp oct/buf − logDapp hex/buf). It counts as physicochemical. To be noted: 310.2 K; pH 7.4; cyclodextrin in buffer phase as in the label. On the procedure: Apparent distribution coefficients of the compounds were measured in two systems: 1-octanol/buffer pH 7.4 and n-hexane/buffer pH 7.4 by the shake-flask technique at 310.2 ± 0.5 K in the absence (for IPN, INZ and iNAM) and in the presence of cyclodextrins (HP-β-CD and M-β-CD) in the aqueous phase (for IPN only). The concentrations of cyclodextrins were: 0.0115 M, 0.025 M and 0.035 M. The experiments were carried out according to the literature. In brief, the following experimental procedure was performed. Aqueous buffer pH 7.4 and organic solvent (1-octanol or n-hexane) were mixed during 48 h to obtain mutually saturated phases. The stock solutions containing the drug were prepared in buffer pH 7.4 saturated with the organic solvent. Both aliquots of the aqueous stock solution and organic solvent were placed in screwed glass vials and mixed at 310.2 ± 0.5 K during 3 days. The concentrations of the stock solutions were approximately 6.0 × 10^−3 M for both systems. […] The drug concentrations were determined using spectrophotometer (Cary-50 Varian, Palo Alto, CA, USA, Software Version 3.00 (339)). […] The distribution coefficients were calculated using the following equation:(6) DappOrg/buf=C2Org/buf⋅V^buf/Org/C2buf/Org⋅V^Org/buf where DappOrg/buf is the distribution coefficient calculated from the concentrations of the compounds expressed in molar scale, C2Org/buf and C2buf/Org are the molar concentrations of the drug in the mutually saturated organic solvent/buffer and buffer/organic solvent phases, respectively, and V^buf/Org and V^Org/buf are the volumes of the saturated buffer and organic solvent phases, respectively. […] As Abraham et al. stated, the difference between the distribution parameters in these systems ( ΔlogD ) can be applied to assess the specific interactions including a hydrogen-bonding impact to the drug transport properties and can be calculated as follows:(7) ΔlogD=logDappoct/buf−logDapphex/buf

Each structure is given as a SMILES string.

As to `CC(C)NNC(=O)c1ccncc1` [IPN, N′-isopropyl isonicotinic hydrazide], the “Molar solubility S2 × 10^3 in n-Hexane” value in series [1] (T 293.2 K) is recorded as 0.83 ± 0.03 × 10^3 (M); in series [1] (T 298.2 K), 1.07 ± 0.02 × 10^3 (M); in series [1] (T 303.2 K) it was 1.42 ± 0.03 × 10^3 (M); in series [1] (T 310.2 K), 2.03 ± 0.04 × 10^3 (M). Also, the TΔSsol298.2 in series [1] (n-hexane, 298.2 K) amounted to 4.3 ± 0.19 kcal/mol. This compound also gave a ΔGsol298.2 in series [1] (n-hexane, 298.2 K) of 5.26 ± 0.096 kcal/mol. The ζHsol turned out to be 69.0% in series [1] (n-hexane, 298.2 K (first value of cell)) and 68.0% in series [1] (n-hexane, 310.2 K (second value of cell)). Also, the ΔHsol298.2/310.2 in series [1] (n-hexane, 298.2 K and 310.2 K) worked out at 9.56 ± 0.22 kcal/mol. Also, the TΔSsol310.2 in series [1] (n-hexane, 310.2 K) worked out at 4.49 ± 0.19 kcal/mol. Further, the ΔGsol310.2 in series [1] (n-hexane, 310.2 K) was 5.07 ± 0.096 kcal/mol. In addition, the ΔlogD in series [2] is given as 3.33.
